Test results reported in patent publication US20230182351A1, “ANTI-MICROBIAL ADDITIVE AND PROPERTIES TO FOAM TO PREVENT MOLD” (LEAR CORPORATION, priority 2021, published 2023).

Tested on: bacterial and fungal growth
Experiment: Antimicrobial tests summarized in Table 1 (JIS Z 2801, ASTM G-21)
Assay type: cell-based
Settings: in polyurethane foam, amount systematically varied
Protocol: Two polyurethane sample families were prepared. The amount of the liquid antimicrobial agent N-butyl-1,2-benzisothiazolin-3-one was systematically varied. It is pointed out that he JIS Z 2801 method test is an industry standard for testing the ability of a surface to inhibit the growth of microorganisms. ASTM G-21 is a test for fungal resistance test

CCCCn1sc2ccccc2c1=O [N-butyl-1,2-benzisothiazolin-3-one]
inhibition of bacterial and fungal growth: significant inhibition
